Measurements taken from patent US8110681B2, “Compounds for the treatment of spinal muscular atrophy and other uses” (The United States of America as represented by the …, priority 2006, dated 2012).
Like-named read-outs stand apart in the source and are kept apart here.

System: SMN2-linked luciferase-reporter gene construct
Experiment: SMN splice reporter assay (SMN2-linked luciferase reporter, Example 10)
Type: cell-based
Settings: for maximal fold induction: read-out: SMN Splice Reporter Assay (Example 10) Avg MaxFold Increase
Summary of the method: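 Cervical carcinoma cells stably carrying an SMN2–luciferase splice reporter, in which luciferase is in frame only when SMN2 exon 7 is included, were treated with compound. Luciferase activity was read and expressed as fold increase over untreated transformed cells.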

[1] = SMN2-linked luciferase reporter, average
[2] = maximum fold increase of reporter signal, average
[3] = SMN2-linked luciferase reporter, average maximum fold increase

Row | Compound | EC50 [1] [nM] | maximal fold induction [2] | SMN Splice Reporter Assay (Example 10) Avg MaxFold Increase [2] | maximal fold induction [3]
1 | CCOCc1ccc2c(c1)C(=O)N(c1ccc(C(C)COC)cc1)C2 (centres unmarked) [ALB-114846] | 493 | 1.3 |  | 
2 | COCC(C)c1ccc(N2Cc3ccc(COC(C)C)cc3C2=O)cc1 (centres unmarked) [ALB-114847] |  | 1.23 |  | 
3 | CCCOc1ccc2c(c1)C(=O)N(c1ccc(C(C)C(=O)O)cc1)C2 (centres unmarked) [ALB-114934] | 33 | 1.87 |  | 
4 | CC(C)OCC(C)c1ccc(N2Cc3ccccc3C2=O)cc1 (centres unmarked) [ALB-114935] | 977 | 1.26 |  | 
5 | O=C1c2ccccc2CN1c1ccc(C2CCCC2)cc1 [ALB-115068] | 53 | 1.41 |  | 
6 | COCCOc1ccc2c(c1)C(=O)N(c1ccc(C(C)C(=O)O)cc1)C2 (centres unmarked) [ALB-115071] | 824 | 1.39 |  | 
7 | COCCc1ccc(N2Cc3ccccc3C2=O)cc1 [ALB-115073] |  | 1.19 |  | 
8 | CCCCc1ccc2c(c1)C(=O)N(c1ccc(C(C)C(=O)O)cc1)C2 (centres unmarked) [ALB-115086] | 61 | 2.06 |  | 
9 | COCCc1ccc(N2Cc3ccc(OC)cc3C2=O)cc1 [ALB-115217] |  | 1.26 |  | 
10 | C/C=C/c1ccc2c(c1)C(=O)N(c1ccc(C(C)C)cc1)C2 [ALB-115319] |  | 1.24 |  | 
11 | COCc1ccc(N2Cc3ccccc3C2=O)cc1 [ALB-115323] |  | 1.1 |  | 
12 | CC(C)COc1ccc2c(c1)C(=O)N(c1ccc(C(C)C(=O)O)cc1)C2 (centres unmarked) [ALB-115325] | 74 | 1.57 |  | 
13 | CC(C(=O)O)c1ccc(N2Cc3ccc(OCc4ccccc4)cc3C2=O)cc1 (centres unmarked) [ALB-115326] |  | 1.24 |  | 
14 | O=C1c2ccccc2CN1c1ccc(C2CCCCC2)cc1 [ALB-115423] | 29 | 1.21 |  | 
15 | COCC(C)(C)c1ccc(N2Cc3ccccc3C2=O)cc1 [ALB-115427] |  | 1.31 |  | 
16 | CC(C(=O)O)c1ccc(N2Cc3ccc(/C=C/C(F)(F)F)cc3C2=O)cc1 (centres unmarked) [ALB-115501] | 2320 | 1.39 |  | 

Row | Compound | EC50 [1] [nM] | maximal fold induction [2] | SMN Splice Reporter Assay (Example 10) Avg MaxFold Increase [2] | maximal fold induction [3]
17 | CC(C(=O)O)c1ccc(N2Cc3ccc(CCC(F)(F)F)cc3C2=O)cc1 (centres unmarked) [ALB-115588] | 356 | 1.7 |  | 
18 | O=C1c2cc(Br)ccc2CN1c1ccc(C2CCCCC2)cc1 [ALB-115590] |  | 1.11 |  | 
19 | CCCc1ccc(N2Cc3ccc(OC)cc3C2=O)cc1 [ALB-115708] |  | 1.1 |  | 
20 | CC(C)c1ccc(N2Cc3ccc(N4CCCC4)cc3C2=O)cc1 [ALB-115715] |  | 1.06 |  | 
21 | Cc1ccc2c(c1)C(=O)N(c1ccc(C3CCCCC3)cc1)C2 [ALB-115717] |  | 1.06 |  | 
22 | CC(C)c1ccc(N2Cc3cccc(Br)c3C2=O)cc1 [ALB-115801] | 144 | 1.45 |  | 
23 | CC(C)c1ccc(N2Cc3c(Br)cccc3C2=O)cc1 [ALB-115811] |  | 1.16 |  | 
24 | COCC(C)c1ccc(N2Cc3ccc(CC(C)C)cc3C2=O)cc1 (centres unmarked) [ALB-115976] | 179 | 1.29 |  | 
25 | COCc1ccc(N2Cc3ccc(OC)cc3C2=O)cc1 [ALB-116067] |  | 1.24 |  | 
26 | Cc1ccc2c(c1)C(=O)N(c1ccc(C3CCCC3)cc1)C2 [ALB-116073] |  |  |  | 1.08
27 | CC(C)c1ccc(N2Cc3ccc(OC4CCCC4)cc3C2=O)cc1 [ALB-116077] |  | 1.18 |  | 
28 | CC(C)c1ccc(N2Cc3ccc(N4CCOCC4)cc3C2=O)cc1 [ALB-116368] |  | 1.08 |  | 
29 | O=C1c2cc3c(cc2CN1c1ccc(C2CCCCC2)cc1)OCCO3 [ALB-116417] |  |  |  | 1.11
30 | CC(C)c1ccc(N2Cc3ccc(N4CCCCC4)cc3C2=O)cc1 [ALB-116418] |  | 1.15 |  | 
31 | CC(C)c1ccc(N2Cc3ccc(CN(C)C)cc3C2=O)cc1 [ALB-116934] |  | 1.05 |  | 
32 | CCCC(C)c1ccc(N2Cc3ccccc3C2=O)cc1 (centres unmarked) [ALB-117045] | 70 | 1.25 |  | 

Further lines, with some results ahead:

Row | EC50 [1] [nM] | Compound | maximal fold induction [2] | SMN Splice Reporter Assay (Example 10) Avg MaxFold Increase [2] | maximal fold induction [3]
33 | 302 | Cc1ccc(N2Cc3ccccc3C2=O)cc1 [ALB-114898] | 1.36 |  | 
34 | 131 | CC(C)(C)c1ccc(N2Cc3ccccc3C2=O)cc1 [ALB-114936] | 1.41 |  | 
35 | 298 | CCCc1ccc2c(c1)C(=O)N(c1ccc(C(C)C)cc1)C2 [ALB-114939] | 1.43 |  | 
36 | 97 | CCc1ccc(N2Cc3ccccc3C2=O)cc1 [ALB-114940] | 1.36 |  | 
37 | 299 | COCc1ccc2c(c1)C(=O)N(c1ccc(C(C)CO)cc1)C2 (centres unmarked) [ALB-114941] | 1.35 |  | 
38 | 217 | COCc1ccc2c(c1)C(=O)N(c1ccc(C(C)COC)cc1)C2 (centres unmarked) [ALB-114942] | 1.33 |  | 
39 | 1320 | COCC(C)c1ccc(N2Cc3cc(OC)c(OC)cc3C2=O)cc1 (centres unmarked) [ALB-114943] | 1.35 |  | 
40 | 32 | COCC(C)c1ccc(N2Cc3ccc(C)cc3C2=O)cc1 (centres unmarked) [ALB-115072] |  | 1.28 | 
41 | 58 | CCc1ccc(N2Cc3ccc(OC)cc3C2=O)cc1 [ALB-115085] | 1.47 |  | 
42 | 75 | CC(C(=O)O)c1ccc(N2Cc3ccc(I)cc3C2=O)cc1 (centres unmarked) [ALB-115216] | 1.87 |  | 
43 | 76 | C=Cc1ccc2c(c1)C(=O)N(c1ccc(C(C)COC)cc1)C2 (centres unmarked) [ALB-115327] | 1.43 |  | 
44 | 298 | CCc1ccc2c(c1)C(=O)N(c1ccc(C(C)COC)cc1)C2 (centres unmarked) [ALB-115328] | 1.5 |  | 
45 | 399 | COc1ccc2c(c1)C(=O)N(c1ccc(C3CCCC3)cc1)C2 [ALB-115422] | 1.27 |  | 
46 | 18 | CC(C)=Cc1ccc2c(c1)C(=O)N(c1ccc(C(C)C(=O)O)cc1)C2 (centres unmarked) [ALB-115425] | 1.95 |  | 
47 | 13 | CC(C)Cc1ccc2c(c1)C(=O)N(c1ccc(C(C)C(=O)O)cc1)C2 (centres unmarked) [ALB-115426] | 1.96 |  | 
48 | 556 | COc1ccc2c(c1)C(=O)N(c1ccc(C3CCCCC3)cc1)C2 [ALB-115496] | 1.39 |  | 
49 | 83 | CCCc1ccc(N2Cc3ccccc3C2=O)cc1 [ALB-115499] | 1.27 |  | 
50 | 115 | CC(C(=O)O)c1ccc(N2Cc3ccc(OCC4CC4)cc3C2=O)cc1 (centres unmarked) [ALB-115500] | 1.54 |  | 
51 | 184 | CC(C)(C)c1ccc(N2Cc3ccc(Br)cc3C2=O)cc1 [ALB-115583] | 1.37 |  | 
52 | 83 | CC(C(=O)O)c1ccc(N2Cc3ccc(OCC4CCC4)cc3C2=O)cc1 (centres unmarked) [ALB-115585] | 1.48 |  | 
53 | 143 | CCCc1ccc(N2Cc3ccc(Br)cc3C2=O)cc1 [ALB-115589] | 1.39 |  | 
54 | 660 | COCC(C)(C)c1ccc(N2Cc3ccc(OC)cc3C2=O)cc1 [ALB-115706] | 1.26 |  | 
55 | 274 | Cc1ccc(N2Cc3ccccc3C2=O)cc1C [ALB-115711] | 1.33 |  | 

Row | EC50 [1] [nM] | Compound | maximal fold induction [2] | SMN Splice Reporter Assay (Example 10) Avg MaxFold Increase [2] | maximal fold induction [3]
56 | 61 | CCc1ccc2c(c1)C(=O)N(c1ccc(C(C)C)cc1)C2 [ALB-115713] | 1.37 |  | 
57 | 53 | C=Cc1ccc2c(c1)C(=O)N(c1ccc(C(C)C)cc1)C2 [ALB-115714] | 1.37 |  | 
58 | 29 | CC(C(=O)O)c1ccc(N2Cc3ccc(C4CC4)cc3C2=O)cc1 (centres unmarked) [ALB-115716] | 1.59 |  | 
59 | 22 | O=C1c2cc(Br)ccc2CN1c1ccc(C2CC2)cc1 [ALB-115718] | 1.32 |  | 
60 | 61 | O=C1c2ccccc2CN1c1ccc(C2CC2)cc1 [ALB-115802] |  |  | 1.28
61 | 15 | COc1ccc2c(c1)C(=O)N(c1ccc(C3CC3)cc1)C2 [ALB-115803] |  |  | 1.26
62 | 99 | CC(C)c1ccc(N2Cc3ccc(N)cc3C2=O)cc1 [ALB-115805] | 1.42 |  | 
63 | 155 | CC(C)=Cc1ccc2c(c1)C(=O)N(c1ccc(C(C)C)cc1)C2 [ALB-115807] |  |  | 1.3
64 | 145 | CC(C)c1ccc(N2Cc3cc(Br)ccc3C2=O)cc1 [ALB-115810] | 1.44 |  | 
65 | 114 | Cc1cccc2c1CN(c1ccc(C(C)C)cc1)C2=O [ALB-115947] | 1.39 |  | 
66 | 6 | Cc1ccc2c(c1)C(=O)N(c1ccc(C3CC3)cc1)C2 [ALB-115949] |  |  | 1.37
67 | 51 | Cc1ccc2c(c1)C(=O)N(c1ccc(C(C)(C)C)cc1)C2 [ALB-116068] | 1.35 |  | 
68 | 16 | CCCc1ccc(N2Cc3ccc(C)cc3C2=O)cc1 [ALB-116071] | 1.35 |  | 
69 | 68 | O=C1c2cc(Br)ccc2CN1c1ccc(C2CCCC2)cc1 [ALB-116072] |  |  | 1.36
70 | 188 | CCCOc1ccc2c(c1)C(=O)N(c1ccc(C(C)C)cc1)C2 [ALB-116075] | 1.26 |  | 
71 | 72 | CC(C)Oc1ccc2c(c1)C(=O)N(c1ccc(C(C)C)cc1)C2 [ALB-116076] | 1.35 |  | 
72 | 33 | CCc1ccc(N2Cc3cc4c(cc3C2=O)OCCO4)cc1 [ALB-116240] |  |  | 1.62
73 | 219 | CC(C)Cc1ccc2c(c1)C(=O)N(c1ccc(C(C)C)cc1)C2 [ALB-116245] | 1.36 |  | 
74 | 24 | Cc1ccc(N2Cc3cc4c(cc3C2=O)OCCO4)cc1 [ALB-116363] |  |  | 1.54
75 | 121 | CCN(CC)c1ccc2c(c1)C(=O)N(c1ccc(C(C)C)cc1)C2 [ALB-116639] | 1.19 |  | 
76 | 68 | O=C1c2cc3c(cc2CN1c1ccc(C2CC2)cc1)OCCO3 [ALB-117043] |  |  | 1.57
77 | 269 | CC(=O)N(C)c1ccc2c(c1)C(=O)N(c1ccc(C(C)C)cc1)C2 [ALB-117047] |  |  | 1.39
78 | 180 | COc1ccc2c(c1)CN(c1ccc(C(C)C)cc1)C2=O [ALB-117453] | 1.28 |  | 
